In patent US11673894B2, “Imidazopyrimidines and triazolopyrimidines as A2A / A2B inhibitors” (Incyte Corporation, priority 2018, dated 2023):

What was measured:
[1] = molecular target: Adenosine A2A receptor (Homo sapiens (Human), UniProt P29274); assay: A2A Tag-lite HTRF Assay; conditions: Tag-lite Adenosine A2A labeled cells; A2A Receptor Red antagonist fluorescent ligand 12.5 nM; one-site competitive binding model; read-out: A2A_Ki
Excerpt: The final concentration of DMSO was 1%.

[2] = molecular target: human adenosine A2B receptor (Homo sapiens (Human), UniProt P29275); assay: Adenosine A2B Receptor Cyclic AMP GS Assay; type: cell-based; conditions: HEK-293 cells expressing human A2B receptor; agonist NECA at 12 nM; cAMP accumulation (FRET); read-out: A2B_cAMP_EC50
Experimental: Stably transfected HEK-293 cells expressing the human adenosine A2B receptor (Perkin Elmer) were maintained in MEM culture medium with 10% FBS and 100 μg/ml Geneticin (Life Technologies). 18 to 24 hours prior to assay, geneticin was removed from culture. The cisbio cAMP-GS Dynamic kit utilizing the FRET (Fluorescence Resonance Energy Transfer) technology was used to measure cAMP accumulation in the cells. Compounds of the present disclosure at an appropriate concentration were mixed with 10000 cells/well in white 96 well half area plates (Perkin Elmer) for 30 min at RT gently shaking. Agonist, NECA (R&D Technologies) at 12 nM was added to each well for 60 min at RT gently shaking. Detection reagents, d2-labeled cAMP (acceptor) and anti-cAMP cryptate (donor) were added to each well for 60 min at RT gently shaking. Plates were read on Pherastar (BMG Labtech), fluorescence ratio 665/620 was calculated and EC50 determination was performed by fitting the curve of percent of control versus the log of the compound concentration using GraphPad Prism.

human adenosine A2B receptor, sequence (P29275 whole entry): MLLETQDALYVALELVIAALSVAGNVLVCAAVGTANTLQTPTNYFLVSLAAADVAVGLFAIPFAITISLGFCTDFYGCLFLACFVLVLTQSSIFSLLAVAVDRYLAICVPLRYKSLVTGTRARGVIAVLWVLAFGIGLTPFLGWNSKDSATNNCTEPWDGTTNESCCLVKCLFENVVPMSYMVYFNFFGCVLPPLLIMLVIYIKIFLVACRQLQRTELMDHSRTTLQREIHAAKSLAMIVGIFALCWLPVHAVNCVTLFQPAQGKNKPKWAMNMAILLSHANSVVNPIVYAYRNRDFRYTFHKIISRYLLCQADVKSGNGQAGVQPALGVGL
Adenosine A2A receptor, sequence (P29274 whole entry): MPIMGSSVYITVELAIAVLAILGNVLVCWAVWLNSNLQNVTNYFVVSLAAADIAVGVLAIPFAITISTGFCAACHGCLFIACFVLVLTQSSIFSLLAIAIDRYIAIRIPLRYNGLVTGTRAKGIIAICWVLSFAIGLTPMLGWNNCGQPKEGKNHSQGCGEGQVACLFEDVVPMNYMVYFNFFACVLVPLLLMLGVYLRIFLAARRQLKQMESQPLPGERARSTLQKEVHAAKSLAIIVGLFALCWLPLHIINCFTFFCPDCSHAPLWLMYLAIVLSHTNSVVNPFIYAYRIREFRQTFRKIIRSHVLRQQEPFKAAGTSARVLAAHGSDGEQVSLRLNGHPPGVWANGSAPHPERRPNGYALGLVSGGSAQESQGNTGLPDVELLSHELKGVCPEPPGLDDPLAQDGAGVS

| Compound | Ki [1] [nM] | EC50 [2] [nM] |
| --- | --- | --- |
| N#Cc1cccc(-c2nc(N)n3nc(Cc4ccccn4)nc3c2-c2cccc3ncccc23)c1 [Example 44, 3-(5-Amino-2-(pyridin-2-ylmethyl)-8-(quinolin-5-yl)-[1,2,4]triazolo[1,5-c]pyrimidin-7-yl)benzonitrile] | < 10 | 10 to 100 |
| Nc1nc(-c2ccccc2F)c(-c2ccncc2)c2nccn12 [Example 7, 7-(2-Fluorophenyl)-8-(pyridin-4-yl)imidazo[1,2-c]pyrimidin-5-amine] | 10 to 100 | 10 to 100 |
| N#Cc1cccc(-c2nc(N)n3nc(C(O)c4ccccc4)nc3c2-c2ncncc2F)c1 (centres unmarked) [Example 45, 3-(5-Amino-8-(5-fluoropyrimidin-4-yl)-2-(hydroxy(phenyl)methyl)-[1,2,4]triazolo[1,5-c]pyrimidin-7-yl)benzonitrile] | < 10 | < 10 |
| Cc1ncoc1-c1c(-c2cccc(C#N)c2)nc(N)n2nc(Cc3cccc(C(F)(F)F)n3)nc12 [Example 89, 3-(5-Amino-8-(4-methyloxazol-5-yl)-2-((6-(trifluoromethyl)pyridin-2-yl)methyl)-[1,2,4]triazolo[1,5-c]pyrimidin-7-yl)benzonitrile] | < 10 | < 10 |
| CCNC(=O)c1cn2c(NCC)nc(-c3ccccc3)c(-c3cc(C)nc(C)c3)c2n1 [Example 22, 8-(2,6-Dimethylpyridin-4-yl)-N-ethyl-5-(ethylamino)-7-phenylimidazo[1,2-c]pyrimidine-2-carboxamide] | 10 to 100 | > 1000 |
| CCn1cc(-c2c(-c3cccc(C#N)c3)nc(N)n3cc(C(=O)Nc4cnn(CCO)c4)nc23)ccc1=O [Example 25, 5-Amino-7-(3-cyanophenyl)-8-(1-ethyl-6-oxo-1,6-dihydropyridin-3-yl)-N-(1-(2-hydroxyethyl)-1H-pyrazol-4-yl)imidazo[1,2-c]pyrimidine-2-carboxamide] | < 10 | 100 to 1000 |
| N#Cc1cccc(-c2nc(N)n3nc(NC(C#N)c4ccccc4)nc3c2-c2ccncn2)c1 (centres unmarked) [Example 69, 3-(5-Amino-2-((cyano(phenyl)methyl)amino)-8-(pyrimidin-4-yl)-[1,2,4]triazolo[1,5-c]pyrimidin-7-yl)benzonitrile] | < 10 | 10 to 100 |
| CCNC(=O)c1cn2c(N)nc(-c3cccc(C#N)c3)c(-c3ccnc4c3OCCO4)c2n1 [Example 39, 5-Amino-7-(3-cyanophenyl)-8-(2,3-dihydro-[1,4]dioxino[2,3-b]pyridin-8-yl)-N-ethylimidazo[1,2-c]pyrimidine-2-carboxamide] | < 10 | 10 to 100 |
| CCNC(=O)c1cn2c(N)nc(-c3cccc(C#N)c3)c(-c3ccncc3OC)c2n1 [Example 30, 5-Amino-7-(3-cyanophenyl)-N-ethyl-8-(3-methoxypyridin-4-yl)imidazo[1,2-c]pyrimidine-2-carboxamide] | < 10 | < 10 |
| Cc1ncoc1-c1c(-c2cccc(C#N)c2)nc(N)n2nc(Cc3ncccc3CO)nc12 [Example 91, 3-(5-Amino-2-((3-(hydroxymethyl)pyridin-2-yl)methyl)-8-(4-methyloxazol-5-yl)-[1,2,4]triazolo[1,5-c]pyrimidin-7-yl)benzonitrile] | < 10 | < 10 |
| CCn1nccc1-c1c(-c2cccc(C#N)c2)nc(N)n2nc(Cc3ncccc3OC)nc12 [Example 53, 3-(5-Amino-8-(1-ethyl-1H-pyrazol-5-yl)-2-((3-methoxypyridin-2-yl)methyl)-[1,2,4]triazolo[1,5-c]pyrimidin-7-yl)benzonitrile] | < 10 | 10 to 100 |
| CCCn1nccc1-c1c(-c2cccc(C#N)c2)nc(N)n2nc(Cc3ccccn3)nc12 [Example 43, 3-(5-Amino-8-(1-propyl-1H-pyrazol-5-yl)-2-(pyridin-2-ylmethyl)-[1,2,4]triazolo[1,5-c]pyrimidin-7-yl)benzonitrile] | < 10 | < 10 |
| CCn1nccc1-c1c(-c2cccc(C#N)c2)nc(N)n2nc(Cc3ccccn3)nc12 [Example 42, 3-(5-Amino-8-(1-ethyl-1H-pyrazol-5-yl)-2-(pyridin-2-ylmethyl)-[1,2,4]triazolo[1,5-c]pyrimidin-7-yl)benzonitrile] | < 10 | < 10 |
| Cn1ccc(Cc2nc3c(-c4cnco4)c(-c4cccc(C#N)c4)nc(N)n3n2)n1 [Example 93, 3-(5-Amino-2-((1-methyl-1H-pyrazol-3-yl)methyl)-8-(oxazol-5-yl)-[1,2,4]triazolo[1,5-c]pyrimidin-7-yl)benzonitrile] | < 10 | < 10 |
| Cc1ncoc1-c1c(-c2cccc(C#N)c2)nc(N)n2nc(Cc3ccn(C)n3)nc12 [Example 92, 3-(5-Amino-2-((1-methyl-1H-pyrazol-3-yl)methyl)-8-(4-methyloxazol-5-yl)-[1,2,4]triazolo[1,5-c]pyrimidin-7-yl)benzonitrile] | < 10 | < 10 |
| N#Cc1cccc(-c2nc(N)n3nc(Cc4c(F)cccc4CN4CCCS4(=O)=O)nc3c2-c2ccncn2)c1 [Example 86, 3-(5-Amino-2-(2-((1,1-dioxidoisothiazolidin-2-yl)methyl)-6-fluorobenzyl)-8-(pyrimidin-4-yl)-[1,2,4]triazolo[1,5-c]pyrimidin-7-yl)benzonitrile] | < 10 | < 10 |
| N#Cc1cccc(-c2nc(N)n3nc(Cc4c(F)cccc4CN4CCC(C(=O)O)CC4)nc3c2-c2ccncn2)c1 [Example 73, 1-(2-((5-Amino-7-(3-cyanophenyl)-8-(pyrimidin-4-yl)-[1,2,4]triazolo[1,5-c]pyrimidin-2-yl)methyl)-3-fluorobenzyl)piperidine-4-carboxylic acid] | < 10 | 10 to 100 |
| CCNC(=O)c1nc2c(-c3ccnc(OC)c3)c(-c3cccc(C#N)c3)nc(N)n2c1C [Example 18, 5-Amino-7-(3-cyanophenyl)-N-ethyl-8-(2-methoxypyridin-4-yl)-3-methylimidazo[1,2-c]pyrimidine-2-carboxamide] | 10 to 100 | 10 to 100 |

Results, then the molecule that gave them:

| Ki [1] [nM] | EC50 [2] [nM] | Compound |
| --- | --- | --- |
| < 10 | < 10 | Cc1cc(C(F)(F)F)nn1Cc1nc2c(-c3ccncn3)c(-c3cccc(C#N)c3)nc(N)n2n1 [Example 81, 3-(5-Amino-2-((5-methyl-3-(trifluoromethyl)-1H-pyrazol-1-yl)methyl)-8-(pyrimidin-4-yl)-[l*2,4]triazolo[1,5-c]pyrimidin-7-yl)benzonitrile] |
| < 10 | < 10 | N#Cc1cccc(-c2nc(N)n3nc(Cc4ccccn4)nc3c2-c2ncncc2F)c1 [Example 46, 3-(5-Amino-8-(5-fluoropyrimidin-4-yl)-2-(pyridin-2-ylmethyl)-[1,2,4]triazolo[1,5-c]pyrimidin-7-yl)benzonitrile] |
| < 10 | < 10 | Cc1cccnc1COc1nc2c(-c3ccncn3)c(-c3cccc(C#N)c3)nc(N)n2n1 [Example 94, 3-(5-Amino-2-((3-methylpyridin-2-yl)methoxy)-8-(pyrimidin-4-yl)-[1,2,4]triazolo[1,5-c]pyrimidin-7-yl)benzonitrile] |
| < 10 | < 10 | N#Cc1cccc(-c2nc(N)n3nc(C(=O)c4ccccc4)nc3c2-c2ccncn2)c1 [Example 66, 3-(5-Amino-2-benzoyl-8-(pyrimidin-4-yl)-[1,2,4]triazolo[1,5-c]pyrimidin-7-yl)benzonitrile] |
| < 10 | < 10 | Cc1cccc(COc2nc3c(-c4ccncn4)c(-c4cccc(C#N)c4)nc(N)n3n2)n1 [Example 95, 3-(5-Amino-2-((6-methylpyridin-2-yl)methoxy)-8-(pyrimidin-4-yl)-[1,2,4]triazolo[1,5-c]pyrimidin-7-yl)benzonitrile] |
| < 10 | 10 to 100 | Cc1cccc(Cc2nc3c(-c4ccncn4)c(-c4cccc(C#N)c4)nc(N)n3n2)n1 [Example 51, 3-(5-Amino-2-((6-methylpyridin-2-yl)methyl)-8-(pyrimidin-4-yl)-[1,2,4]triazolo[1,5-c]pyrimidin-7-yl)benzonitrile] |
| < 10 | < 10 | N#Cc1cccc(-c2nc(N)n3nc(COc4ccccc4C#N)nc3c2-c2ccncn2)c1 [Example 96, 2-((5-Amino-7-(3-cyanophenyl)-8-(pyrimidin-4-yl)-[1,2,4]triazolo[1,5-c]pyrimidin-2-yl)methoxy)benzonitrile] |
| < 10 | < 10 | Cc1cnccc1-c1c(-c2cccc(C#N)c2)nc(N)n2nc(Cc3ccccn3)nc12 [Example 58, 3-(5-Amino-8-(3-methylpyridin-4-yl)-2-(pyridin-2-ylmethyl)-[1,2,4]triazolo[1,5-c]pyrimidin-7-yl)benzonitrile] |
| < 10 | < 10 | Cc1cccnc1CNc1nc2c(-c3ccncn3)c(-c3cccc(C#N)c3)nc(N)n2n1 [Example 97, 3-(5-Amino-2-(((3-methylpyridin-2-yl)methyl)amino)-8-(pyrimidin-4-yl)-[1,2,4]triazolo[1,5-c]pyrimidin-7-yl)benzonitrile] |
| < 10 | < 10 | N#Cc1cccc(-c2nc(N)n3nc(C(O)c4ccccc4F)nc3c2-c2ccncn2)c1 (centres unmarked) [Example 50, 3-(5-Amino-2-((2-fluorophenyl)(hydroxy)methyl)-8-(pyrimidin-4-yl)-[1,2,4]triazolo[1,5-c]pyrimidin-7-yl)benzonitrile] |
